Values of other authors as cited in US20240207251A1, “PHARMACEUTICAL COMPOSITION CONTAINING ARTESUNATE OR SALT THEREOF AND PYRONARIDINE OR SALT THEREOF, FOR ANTIPYRESIS, ANTI-INFLAMMATORY EFFICACY, ANTI-VIRAL EFFICACY AND TREATMENT OR PREVENTION OF COVID-19, AND METHOD USING SAME” (priority 2021, published 2024).

Legend:
[1] = system: SARS-COV 2; settings: reported by Joon-Yong Bae et al., bioRxiv, Jul. 28, 2020
[2] = system: influenza virus; settings: reported by Joon-Yong Bae et al., bioRxiv, Jul. 28, 2020

SMILES	in vitro anti-viral action on COVID-19 [1]	in vitro anti-viral action on influenza [2]
C[C@H]1[C@H](OC(=O)CCC(=O)O)O[C@@H]2O[C@@]3(C)CC[C@H]4[C@H](C)CC[C@@H]1[C@@]24OO3 [artesunate, dihydroartemisinine-12-alpha-succinate]	in vitro anti-viral action	in vitro anti-viral action
COc1ccc2nc3cc(Cl)ccc3c(Nc3cc(CN4CCCC4)c(O)c(CN4CCCC4)c3)c2n1 [pyronaridine, 4-[(7-chloro-2-methoxybenzo[b]-1,5-naphthyridin-10-yl)amino]-2,6-bis(1-pyrrolidinylmethyl)phenyl]	in vitro anti-viral action	in vitro anti-viral action
